This is an account of results in patent US10399972B2, “Tricyclic compounds as inhibitors of mutant IDH enzymes” (Merck Sharp & Dohme Corp., priority 2015, dated 2019).

R132H mutant IDH1 enzyme, sequence (O75874 whole entry R132H): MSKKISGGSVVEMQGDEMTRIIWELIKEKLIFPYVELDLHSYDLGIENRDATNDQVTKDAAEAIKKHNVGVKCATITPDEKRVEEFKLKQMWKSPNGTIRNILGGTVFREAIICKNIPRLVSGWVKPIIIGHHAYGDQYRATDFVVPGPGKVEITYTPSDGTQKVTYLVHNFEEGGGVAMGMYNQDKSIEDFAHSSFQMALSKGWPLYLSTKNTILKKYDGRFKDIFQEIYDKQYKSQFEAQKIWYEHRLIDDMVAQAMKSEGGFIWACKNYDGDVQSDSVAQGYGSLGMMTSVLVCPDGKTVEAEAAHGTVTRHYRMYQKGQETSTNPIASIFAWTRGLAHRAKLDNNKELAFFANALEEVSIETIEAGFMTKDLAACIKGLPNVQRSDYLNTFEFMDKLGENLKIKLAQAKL

In this test the target is R132H mutant IDH1 enzyme (Homo sapiens (Human), UniProt O75874, R132H). The test is described as follows: R132H IDH1 Enzymatic Assay. The test is classed as biochemical. Conditions: 1.5 nM final, 30 min preincubation, 60 min reaction, Kinase-GLO luminescence. How it is done:
R132H IDH1 Enzymatic Assay
Each test compound (10 mM stock in DMSO) is diluted in DMSO to make a 10-point, 3-fold dilution series. 125 nL of each dilution or DMSO alone is dispensed to a 384-well Greiner Lumitrac 200 assay plate using an Echo® Liquid Handler. To each well of the plate is added 20 uL of enzyme in assay buffer or assay buffer alone. Assay buffer consists of 50 mM sodium phosphate, pH 7.0, 50 mM magnesium chloride, 50 mM sodium chloride, and 0.01% (w/v) bovine serum albumin. When present, the R132H mutant IDH1 enzyme is at a working concentration of 1.875 nM (final concentration in assay of 1.5 nM). The assay plate is allowed to incubate for 30 minutes at room temperature and 5 uL of 5× substrate mixture (2.5 uM nicotinamide adenine dinucleotide phosphate, 100 uM adenosine diphosphate, 7.5 mM glyceraldehyde-3-phosphate, 7.5 ug/mL of spinach glyceraldehyde-3-phosphate dehydrogenase, 25 nM phosphoglycerate kinase, and 5 mM alpha-ketoglutarate in assay buffer) is added to all wells. The reaction plate is incubated for 60 minutes followed by addition of 25 uL of Promega Kinase-GLO reagent to all wells and 10-minute incubation.
Luminescence is measured using a PerkinElmer Envision plate reader. The percent activity of each dilution is determined as the ratio of background corrected signal to the background corrected signal of wells receiving only DMSO. IC50 values are determined by fitting percent activity data to a four-parameter logistic dose response equation. The IC50 values of the exemplified compounds are included in Table 8.
(In Kinase-Glo more light means more ATP remaining.)
The term IC50 denotes the midpoint of a concentration-inhibition curve. For `O=C(C1CCN(CC(F)(F)F)CC1)N1Cc2cc(F)cnc2Nc2ccc(N3CC4CCC3CO4)cc21` (single isomer, unassigned) [Example 8, (8-(2-oxa-5-azabicyclo[2.2.2]octan-5-yl)-3-fluoro-5,11-dihydro-6H-benzo[b]pyrido[2,3-e][1,4]diazepin-6-yl)(1-(2,2,2-trifluoroethyl)piperidin-4-yl)methanone], the IC50 worked out at 25.4 nM.

Molecule `O=C(C1CCN(CC(F)(F)F)CC1)N1Cc2cc(F)cnc2Nc2ccc(N3CC4CCC3CO4)cc21` (single isomer, unassigned) [Example 9, (8-(2-oxa-5-azabicyclo[2.2.2]octan-5-yl)-3-fluoro-5,11-dihydro-6H-benzo[b]pyrido[2,3-e][1,4]diazepin-6-yl)(1-(2,2,2-trifluoroethyl)piperidin-4-yl)methanone] registered an IC50 of 21.7 nM.

With `CC(C)O[C@H]1CC[C@H](C(=O)N2Cc3cc(F)cnc3Nc3ccc(N4CC5CCC4CO5)cc32)CC1` (single isomer, unassigned) [Example 13, [3-fluoro-8-(2-oxa-5-azabicyclo[2.2.2]oct-5-yl)-5,11-dihydro-6H-pyrido[2,3-b][1,5]benzodiazepin-6-yl][trans-4-(propan-2-yloxy)cyclohexyl]methanone], the IC50 turned out to be 35.5 nM.

Molecule `CC(C)O[C@H]1CC[C@H](C(=O)N2Cc3cc(F)cnc3Nc3ccc(N4CC5CCC4CO5)cc32)CC1` (single isomer, unassigned) [Example 14, [3-fluoro-8-(2-oxa-5-azabicyclo[2.2.2]oct-5-yl)-5,11-dihydro-6H-pyrido[2,3-b][1,5]benzodiazepin-6-yl][trans-4-(propan-2-yloxy)cyclohexyl]methanone] displayed an IC50 of 44.3 nM.

On to `CC(C)O[C@H]1CC[C@H](C(=O)N2Cc3cc(F)cnc3Nc3cc(F)c([C@@H]4COCCO4)cc32)OC1` (single isomer, unassigned) [Example 35], for which the IC50 was 28 nM.

Regarding `CC(C)O[C@H]1CC[C@H](C(=O)N2Cc3cc(F)cnc3Nc3cc(F)c([C@@H]4COCCO4)cc32)OC1` (single isomer, unassigned) [Example 36], the concentration for half-maximal inhibition (IC50) is 23.7 nM.

`CC(C)OC1CC[C@H](C(=O)N2Cc3cc(F)cnc3Nc3ccc(N4C[C@@H]5CC[C@H]4CO5)cc32)OC1` (stereo in doubt) [Example 49, (8-((1S,4S)-2-oxa-5-azabicyclo[2.2.2]octan-5-yl)-3-fluoro-5,11-dihydro-6H-benzo[b]pyrido[2,3-e][1,4]diazepin-6-yl)((2R,5R)-5-isopropoxytetrahydro-2H-pyran-2-yl)methanone] came in with a 50% inhibitory concentration (IC50) of 12 nM.

Turning to `O=C(C1CCN(CC(F)(F)F)CC1)N1Cc2cc(F)cnc2Nc2cc(F)c(Cl)cc21` [Example 5, (8-Chloro-3,9-difluoro-5,11-dihydro-6H-benzo[b]pyrido[2,3-e][1,4]diazepin-6-yl)(1-(2,2,2-trifluoroethyl)piperidin-4-yl)methanone], it took 11.3 nM to reach half-maximal inhibition (IC50).

Turning to `O=C(C1CCN(CC(F)(F)F)CC1)N1Cc2cc(F)cnc2Nc2ccc(N3C[C@@H]4C[C@H]3CO4)cc21` [Example 6, (8-((1S,4S)-2-Oxa-5-azabicyclo[2.2.1]heptan-5-yl)-3-fluoro-5,11-dihydro-6H-benzo[b]pyrido[2,3-e][1,4]diazepin-6-yl)(1-(2,2,2-trifluoroethyl)piperidin-4-yl)methanone], the half-maximal inhibitory concentration (IC50) was determined as 12.1 nM.

On to `O=C(C1CCN(CC(F)(F)F)CC1)N1Cc2cc(F)cnc2Nc2ccc(N3[C@@H]4CO[C@H]5[C@@H]4OC[C@H]53)cc21` [Example 7, (3-fluoro-8-((3R,3aR,6R,6aR)-hexahydro-3,6-epiminofuro[3,2-b]furan-7-yl)-5,11-dihydro-6H-benzo[b]pyrido[2,3-e][1,4]diazepin-6-yl)(1-(2,2,2-trifluoroethyl)piperidin-4-yl)methanone], for which the IC50 turned out to be 18.5 nM.

`CO[C@H]1C[C@H]2CC[C@@H](C1)N2c1ccc2c(c1)N(C(=O)C1CCN(CC(F)(F)F)CC1)Cc1cc(F)cnc1N2` [Example 10, (3-fluoro-8-((1R,3r,5S)-3-methoxy-8-azabicyclo[3.2.1]octan-8-yl)-5,11-dihydro-6H-benzo[b]pyrido[2,3-e][1,4]diazepin-6-yl)(1-(2,2,2-trifluoroethyl)piperidin-4-yl)methanone] displayed a half-inhibitory concentration (IC50) of 6.2 nM.

The molecule `C[C@H]1CN(c2ccc3c(c2)N(C(=O)C2CCN(CC(F)(F)F)CC2)Cc2cc(F)cnc2N3)[C@@H](C)CO1` [Example 11, (8-((2S,5S)-2,5-dimethylmorpholino)-3-fluoro-5,11-dihydro-6H-benzo[b]pyrido[2,3-e][1,4]diazepin-6-yl)(1-(2,2,2-trifluoroethyl)piperidin-4-yl)methanone] gave an IC50 of 23.8 nM.

Take `O=C(C1CCN(CC(F)(F)F)CC1)N1Cc2cc(F)cnc2Nc2ccc(N3CC4(CCCOC4)C3)cc21` [Example 12, (3-fluoro-8-(6-oxa-2-azaspiro[3.5]nonan-2-yl)-5,11-dihydro-6H-benzo[b]pyrido[2,3-e][1,4]diazepin-6-yl)(1-(2,2,2-trifluoroethyl)piperidin-4-yl)methanone]: inhibition was half-maximal at 22.1 nM (IC50).

In turn, `O=C(C1CCN(CC(F)(F)F)CC1)N1Cc2cc(F)cnc2Nc2ccc(N3C[C@H]4COC[C@@H](C3)O4)cc21` [Example 15, (8-((1R,5S)-3,9-dioxa-7-azabicyclo[3.3.1]nonan-7-yl)-3-fluoro-5,11-dihydro-6H-benzo[b]pyrido[2,3-e][1,4]diazepin-6-yl)(1-(2,2,2-trifluoroethyl)piperidin-4-yl)methanone] came in with an IC50 of 83.4 nM.

For `CC(C)O[C@H]1CC[C@H](C(=O)N2Cc3cc(F)cnc3Nc3ccc(N4CC5(CCCOC5)C4)cc32)CC1` [Example 16, [3-fluoro-8-(6-oxa-2-azaspiro[3.5]non-2-yl)-5,11-dihydro-6H-pyrido[2,3-b][1,5]benzodiazepin-6-yl][trans-4-(propan-2-yloxy)cyclohexyl]methanone], the IC50 was found to be 24 nM.

Regarding `CC(C)O[C@H]1CC[C@H](C(=O)N2Cc3cc(F)cnc3Nc3ccc(N4[C@@H]5CO[C@H]6[C@@H]5OC[C@H]64)cc32)CC1` [Example 17, (3-fluoro-8-((3R,3aR,6R,6aR)-hexahydro-3,6-epiminofuro[3,2-b]furan-7-yl)-5,11-dihydro-6H-benzo[b]pyrido[2,3-e][1,4]diazepin-6-yl)(trans-4-isopropoxycyclohexyl)methanone], 28.4 nM corresponded to half-maximal inhibition (IC50).

In turn, `CC(C)O[C@H]1CC[C@H](C(=O)N2Cc3cc(F)cnc3Nc3ccc(N4C[C@@H]5C[C@H]4CO5)cc32)CC1` [Example 18, (8-((1S,4S)-2-oxa-5-azabicyclo[2.2.1]heptan-5-yl)-3-fluoro-5,11-dihydro-6H-benzo[b]pyrido[2,3-e][1,4]diazepin-6-yl)(trans-4-isopropoxycyclohexyl)methanone] yielded an IC50 of 8.6 nM.

`CC(C)O[C@H]1CC[C@@H](C(=O)N2Cc3cc(F)cnc3Nc3ccc(N4C[C@@H]5C[C@H]4CO5)cc32)CC1` [Example 19, (8-((1S,4S)-2-oxa-5-azabicyclo[2.2.1]heptan-5-yl)-3-fluoro-5,11-dihydro-6H-benzo[b]pyrido[2,3-e][1,4]diazepin-6-yl)(cis-4-isopropoxycyclohexyl)methanone]: the IC50 was 6 nM.

Take `O=C(C1CCN(CC(F)(F)F)CC1)N1Cc2cc(F)cnc2Nc2cc(F)c(N3C[C@@H]4C[C@H]3CO4)cc21` [Example 20, (8-((1S,4S)-2-oxa-5-azabicyclo[2.2.1]heptan-5-yl)-3,9-difluoro-5,11-dihydro-6H-benzo[b]pyrido[2,3-e][1,4]diazepin-6-yl)(1-(2,2,2-trifluoroethyl)piperidin-4-yl)methanone]: 6.7 nM corresponded to half-maximal inhibition (IC50).

`O=C(C1CCN(CC(F)(F)F)CC1)N1Cc2cc(F)cnc2Nc2cc(F)c(N3CC4(CCCOC4)C3)cc21` [Example 21, (3,9-difluoro-8-(6-oxa-2-azaspiro[3.5]nonan-2-yl)-5,11-dihydro-6H-benzo[b]pyrido[2,3-e][1,4]diazepin-6-yl)(1-(2,2,2-trifluoroethyl)piperidin-4-yl)methanone] showed an IC50 of 4.5 nM.

Molecule `O=C(C1CCN(CC(F)(F)F)CC1)N1Cc2cc(F)cnc2Nc2cc(F)c(N3[C@@H]4CO[C@H]5[C@@H]4OC[C@H]53)cc21` [Example 22, (3,9-difluoro-8-((3R,3aR,6R,6aR)-hexahydro-3,6-epiminofuro[3,2-b]furan-7-yl)-5,11-dihydro-6H-benzo[b]pyrido[2,3-e][1,4]diazepin-6-yl)(1-(2,2,2-trifluoroethyl)piperidin-4-yl)methanone] returned an IC50 of 4.2 nM.

With `C[C@H]1CN(c2cc3c(cc2F)Nc2ncc(F)cc2CN3C(=O)C2CCN(CC(F)(F)F)CC2)[C@@H](C)CO1` [Example 23, (8-((2S,5S)-2,5-dimethylmorpholino)-3,9-difluoro-5,11-dihydro-6H-benzo[b]pyrido[2,3-e][1,4]diazepin-6-yl)(1-(2,2,2-trifluoroethyl)piperidin-4-yl)methanone], the half-maximal inhibitory concentration (IC50) came out at 23 nM.

For `CC(C)O[C@H]1CC[C@H](C(=O)N2Cc3cc(F)cnc3Nc3cc(F)c(N4C[C@@H]5C[C@H]4CO5)cc32)CC1` [Example 24, {3,9-difluoro-8-[(1S,4S)-2-oxa-5-azabicyclo[2.2.1]hept-5-yl]-5,11-dihydro-6H-pyrido[2,3-b][1,5]benzodiazepin-6-yl}[trans-4-(propan-2-yloxy)cyclohexyl]methanone], the IC50 turned out to be 5.6 nM.
